Measurements: the NIST ThermoML archive (doi:10.1016/j.jct.2008.02.020)

Settings: Liquid, Buoyancy - hydrostatic balance with magnetic suspension - one sinker

Brc1ccccc1 [bromobenzene]
Settings	mass density [kg/m3]
248.15 K, 99.7 kPa	1554.49
248.15 K, 1231.4 kPa	1555.37
248.15 K, 2075.4 kPa	1556.04
248.15 K, 4196.2 kPa	1557.7
248.15 K, 5951 kPa	1559.05
248.15 K, 8068.3 kPa	1560.67
248.15 K, 10015 kPa	1562.11
248.15 K, 11952 kPa	1563.58
248.15 K, 13995 kPa	1565.09
248.15 K, 15940 kPa	1566.53
248.15 K, 18145 kPa	1568.12
248.15 K, 19946 kPa	1569.42
248.15 K, 21965 kPa	1570.86
248.15 K, 24136 kPa	1572.41
248.15 K, 25865 kPa	1573.62
248.15 K, 27917 kPa	1575.05
248.15 K, 29850 kPa	1576.39
273.15 K, 100.51 kPa	1520.56
273.15 K, 1116.3 kPa	1521.45
273.15 K, 2128.1 kPa	1522.34
273.15 K, 4045.8 kPa	1524.03
273.15 K, 5967.3 kPa	1525.66
273.15 K, 8142.8 kPa	1527.52
273.15 K, 10020 kPa	1529.11
273.15 K, 11896 kPa	1530.68
273.15 K, 13922 kPa	1532.35
273.15 K, 16083 kPa	1534.13
273.15 K, 18195 kPa	1535.83
273.15 K, 20035 kPa	1537.31
273.15 K, 21829 kPa	1538.75
273.15 K, 23856 kPa	1540.34
273.15 K, 25976 kPa	1542.02
273.15 K, 28098 kPa	1543.65
273.15 K, 29947 kPa	1545.09
293.15 K, 101.93 kPa	1493.56
293.15 K, 1239.7 kPa	1494.68
293.15 K, 2010.7 kPa	1495.41
293.15 K, 4059.7 kPa	1497.37
293.15 K, 6007.9 kPa	1499.22
293.15 K, 8079.8 kPa	1501.16
293.15 K, 10001 kPa	1502.94
293.15 K, 11960 kPa	1504.73
293.15 K, 14169 kPa	1506.73
293.15 K, 15879 kPa	1508.27
293.15 K, 17960 kPa	1510.11
293.15 K, 19999 kPa	1511.9
293.15 K, 21880 kPa	1513.53
293.15 K, 24122 kPa	1515.46
293.15 K, 26141 kPa	1517.17
293.15 K, 28060 kPa	1518.79
293.15 K, 29993 kPa	1520.42
313.15 K, 102.54 kPa	1466.55
313.15 K, 2000.8 kPa	1468.59
313.15 K, 4011 kPa	1470.71
313.15 K, 6189.6 kPa	1473
313.15 K, 7991.6 kPa	1474.86
313.15 K, 10089 kPa	1477.01
313.15 K, 12143 kPa	1479.06
313.15 K, 14015 kPa	1480.93
313.15 K, 16087 kPa	1482.94
313.15 K, 18047 kPa	1484.85
313.15 K, 20004 kPa	1486.73
313.15 K, 22154 kPa	1488.76
313.15 K, 23944 kPa	1490.45
313.15 K, 26100 kPa	1492.42
313.15 K, 28042 kPa	1494.21
313.15 K, 29906 kPa	1495.9
333.15 K, 100.42 kPa	1439.38
333.15 K, 1115 kPa	1440.6
333.15 K, 1943.4 kPa	1441.57
333.15 K, 4094.5 kPa	1444.1
333.15 K, 6114.2 kPa	1446.44
333.15 K, 7927.8 kPa	1448.51
333.15 K, 10022 kPa	1450.84
333.15 K, 11958 kPa	1453
333.15 K, 13999 kPa	1455.24
333.15 K, 16049 kPa	1457.44
333.15 K, 18156 kPa	1459.68
333.15 K, 20008 kPa	1461.63
333.15 K, 22158 kPa	1463.84
333.15 K, 24130 kPa	1465.86
333.15 K, 26094 kPa	1467.85
333.15 K, 28018 kPa	1469.76
333.15 K, 29890 kPa	1471.61
353.15 K, 99.8 kPa	1411.94
353.15 K, 1173.8 kPa	1413.37
353.15 K, 1944.3 kPa	1414.39
353.15 K, 3949.8 kPa	1417.01
353.15 K, 5968.9 kPa	1419.61
353.15 K, 7990.5 kPa	1422.16
353.15 K, 9916 kPa	1424.56
353.15 K, 11987 kPa	1427.09
353.15 K, 14135 kPa	1429.67
353.15 K, 15921 kPa	1431.8
353.15 K, 18146 kPa	1434.39
353.15 K, 19874 kPa	1436.37
353.15 K, 22180 kPa	1438.99
353.15 K, 23964 kPa	1440.98
353.15 K, 26085 kPa	1443.32
353.15 K, 28122 kPa	1445.53
353.15 K, 29956 kPa	1447.5
373.15 K, 98.54 kPa	1384.07
373.15 K, 1150.1 kPa	1385.64
373.15 K, 2174.4 kPa	1387.16
373.15 K, 3917.7 kPa	1389.71
373.15 K, 6182.4 kPa	1392.96
373.15 K, 8042.7 kPa	1395.57
373.15 K, 10003 kPa	1398.28
373.15 K, 12008 kPa	1400.99
373.15 K, 14086 kPa	1403.76
373.15 K, 15913 kPa	1406.15
373.15 K, 18066 kPa	1408.91
373.15 K, 19882 kPa	1411.21
373.15 K, 22174 kPa	1414.05
373.15 K, 24053 kPa	1416.33
373.15 K, 25897 kPa	1418.54
373.15 K, 27711 kPa	1420.7
373.15 K, 29531 kPa	1422.85
393.15 K, 97.33 kPa	1355.66
393.15 K, 1226 kPa	1357.56
393.15 K, 2181.2 kPa	1359.15
393.15 K, 3965.3 kPa	1362.08
393.15 K, 6075.4 kPa	1365.47
393.15 K, 8146.9 kPa	1368.75
393.15 K, 9937.3 kPa	1371.46
393.15 K, 11970 kPa	1374.53
393.15 K, 14177 kPa	1377.78
393.15 K, 15956 kPa	1380.34
393.15 K, 18164 kPa	1383.47
393.15 K, 20147 kPa	1386.23
393.15 K, 22176 kPa	1389
393.15 K, 23982 kPa	1391.42
393.15 K, 26170 kPa	1394.3
393.15 K, 28005 kPa	1396.7
393.15 K, 29542 kPa	1398.68
413.15 K, 99.45 kPa	1326.55
413.15 K, 1202.8 kPa	1328.65
413.15 K, 2177.1 kPa	1330.51
413.15 K, 3915.5 kPa	1333.73
413.15 K, 6185.5 kPa	1337.83
413.15 K, 8176.1 kPa	1341.33
413.15 K, 10032 kPa	1344.48
413.15 K, 12104 kPa	1348.01
413.15 K, 13992 kPa	1351.03
413.15 K, 15890 kPa	1354.12
413.15 K, 18162 kPa	1357.68
413.15 K, 19933 kPa	1360.41
413.15 K, 22150 kPa	1363.74
413.15 K, 24133 kPa	1366.66
413.15 K, 26039 kPa	1369.41
413.15 K, 27898 kPa	1372.06
413.15 K, 29858 kPa	1374.81
433.15 K, 1243.8 kPa	1299.09
433.15 K, 1973.3 kPa	1300.66
433.15 K, 4075.9 kPa	1305.09
433.15 K, 6197.8 kPa	1309.43
433.15 K, 7981.5 kPa	1312.95
433.15 K, 10020 kPa	1316.91
433.15 K, 12073 kPa	1320.75
433.15 K, 14034 kPa	1324.34
433.15 K, 15960 kPa	1327.77
433.15 K, 17921 kPa	1331.19
433.15 K, 19992 kPa	1334.75
433.15 K, 21950 kPa	1337.95
433.15 K, 24018 kPa	1341.31
433.15 K, 26143 kPa	1344.68
433.15 K, 28052 kPa	1347.64
433.15 K, 29864 kPa	1350.43
453.15 K, 1135.4 kPa	1268.14
453.15 K, 1982.5 kPa	1270.24
453.15 K, 4017.7 kPa	1275.16
453.15 K, 6189 kPa	1280.22
453.15 K, 7994.2 kPa	1284.28
453.15 K, 10139 kPa	1288.98
453.15 K, 12157 kPa	1293.2
453.15 K, 13982 kPa	1296.94
453.15 K, 16134 kPa	1301.21
453.15 K, 18122 kPa	1305.05
453.15 K, 19974 kPa	1308.56
453.15 K, 22141 kPa	1312.52
453.15 K, 24115 kPa	1316.05
453.15 K, 26121 kPa	1319.56
453.15 K, 28034 kPa	1322.83
453.15 K, 29912 kPa	1325.98
473.15 K, 1191.2 kPa	1236.28
473.15 K, 2175.4 kPa	1239.12
473.15 K, 4131.5 kPa	1244.58
473.15 K, 5988.1 kPa	1249.54
473.15 K, 8161.4 kPa	1255.13
473.15 K, 10165 kPa	1260.08
473.15 K, 12166 kPa	1264.85
473.15 K, 14163 kPa	1269.43
473.15 K, 16125 kPa	1273.8
473.15 K, 18167 kPa	1278.2
473.15 K, 20146 kPa	1282.35
473.15 K, 22123 kPa	1286.36
473.15 K, 24157 kPa	1290.39
473.15 K, 26075 kPa	1294.08
473.15 K, 28020 kPa	1297.73
473.15 K, 29860 kPa	1301.12
